Some results are limits rather than exact numbers.

One assay addresses human Gal-1 (hGal-1). Put plainly: Competitive binding assay: binding of biotinylated hGal-1 to microplate-adsorbed asialofetuin (ASF). As to conditions: Activities on hGal-1; mean values of several measurements. An outline of the steps:
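For hGal-1, a variant with all six cysteines replaced by serines is preferred. Either galectin, biotinylated at 300-1000 ng/mL, competes with compound for microplate-bound ASF over 3 h at 4° C; peroxidase/ABTS detection gives IC50, averaged.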

The target of another assay is human Gal-3 (hGal-3) (Homo sapiens (Human), UniProt P17931). Put plainly: Competitive binding assay: binding of biotinylated hGal-3 to microplate-adsorbed asialofetuin (ASF). As to conditions: Activity on hGal-3; mean values of several measurements. An outline of the steps:
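Compounds in DMSO dilution series competed with 300-1000 ng/mL biotinylated hGal-3 for asialofetuin adsorbed on the plate (3 h, 4° C). Streptavidin-peroxidase at 80 ng/mL (1 h, 4° C) with ABTS gave a spectrophotometric read-out, and IC50 was reported as the mean of repeat runs.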

Chain of human Gal-1 (hGal-1) (P09382 2-135 limits assumed): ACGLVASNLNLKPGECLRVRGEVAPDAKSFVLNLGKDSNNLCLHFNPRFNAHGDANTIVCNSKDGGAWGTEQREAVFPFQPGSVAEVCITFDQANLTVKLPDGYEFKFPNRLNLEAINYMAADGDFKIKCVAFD
Chain of human Gal-3 (hGal-3) (P17931 whole entry): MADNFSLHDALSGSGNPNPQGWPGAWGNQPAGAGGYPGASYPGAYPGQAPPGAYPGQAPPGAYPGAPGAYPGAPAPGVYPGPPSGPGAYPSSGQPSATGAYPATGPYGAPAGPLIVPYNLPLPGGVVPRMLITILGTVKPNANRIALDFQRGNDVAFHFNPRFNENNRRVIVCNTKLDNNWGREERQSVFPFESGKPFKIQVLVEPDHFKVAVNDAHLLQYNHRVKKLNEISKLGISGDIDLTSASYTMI

A word on the IC50: it is the concentration that inhibits the measured activity by half. Lower therefore signals inhibition by little substance. With `CO[C@@H]1[C@@H](n2cc(-c3ccc(Cl)c(F)c3F)nn2)[C@@H](O)[C@@H](CO)O[C@@H]1Cc1cc(C(C)(C)O)on1` [Ex 1.242], the IC50 at human Gal-1 (hGal-1) worked out at 2900 nM; on human Gal-3 (hGal-3) it was 68 nM.

Regarding `CO[C@@H]1[C@@H](n2cc(-c3ccc(Cl)c(F)c3F)nn2)[C@@H](O)[C@@H](CO)O[C@@H]1Cc1cc(C2(O)CCCCC2)on1` [Ex 1.243], the results for the IC50 at human Gal-1 (hGal-1) and at human Gal-3 (hGal-3) were 1330 nM and 42 nM, respectively.

For `CO[C@@H]1[C@@H](n2cc(-c3ccc(Cl)c(F)c3F)nn2)[C@@H](O)[C@@H](CO)O[C@@H]1Cc1cc(C2(O)CCCC2)on1` [Ex 1.244], the IC50 on human Gal-1 (hGal-1) was found to be 3290 nM; on human Gal-3 (hGal-3), 110 nM.

Consider `CO[C@@H]1[C@@H](n2cc(-c3ccc(Cl)c(F)c3F)nn2)[C@@H](O)[C@@H](CO)O[C@@H]1Cc1cc(C2CCCC2)on1` [Ex 1.245], for which the results for the IC50 on human Gal-1 (hGal-1) and at human Gal-3 (hGal-3) were 1860 nM and 67 nM, respectively.

`CO[C@@H]1[C@@H](n2cc(-c3ccc(Cl)c(F)c3F)nn2)[C@@H](O)[C@@H](CO)O[C@@H]1Cc1cc(C2(O)CCC2)on1` [Ex 1.246]: the 50% inhibitory concentration (IC50) at human Gal-1 (hGal-1) was determined as 1720 nM; at human Gal-3 (hGal-3), 73 nM.

`CO[C@@H]1[C@@H](n2cc(-c3cc(F)c(C)cc3F)nn2)[C@@H](O)[C@@H](CO)O[C@@H]1Cc1cc(C(C)(C)C)on1` [Ex 1.247]: the half-inhibitory concentration (IC50) at human Gal-1 (hGal-1) was determined as 2290 nM; on human Gal-3 (hGal-3), 210 nM.

Consider `CO[C@@H]1[C@@H](n2cc(-c3cc(F)c(C)cc3F)nn2)[C@@H](O)[C@@H](CO)O[C@@H]1Cc1cc(C2CCCCC2)on1` [Ex 1.248], for which the IC50 on human Gal-1 (hGal-1) is greater than 100000 nM; at human Gal-3 (hGal-3), 700 nM.

With `CO[C@@H]1[C@@H](n2cc(-c3ccc(Br)c(F)c3)nn2)[C@@H](O)[C@@H](CO)O[C@@H]1Cc1cc(C2CCN(C(=O)OC(C)(C)C)CC2)on1` [Ex 1.249], the values for the IC50 on human Gal-1 (hGal-1) and at human Gal-3 (hGal-3) were 1780 nM and 150 nM, respectively.

On to `CO[C@@H]1[C@@H](n2cc(-c3ccc(F)c(F)c3F)nn2)[C@@H](O)[C@@H](CO)O[C@@H]1Cc1cc(C(C)(C)C)no1` [Ex 1.250], for which the IC50 is 250 nM at human Gal-1 (hGal-1) and 57 nM on human Gal-3 (hGal-3).

As to `CO[C@@H]1[C@@H](n2cc(-c3ccc(F)c(F)c3F)nn2)[C@@H](O)[C@@H](CO)O[C@@H]1Cc1cc(C2(C)CC2)no1` [Ex 1.251], the IC50 was found to be 360 nM on human Gal-1 (hGal-1) and 44 nM at human Gal-3 (hGal-3).

On to `CO[C@@H]1[C@@H](n2cc(-c3ccc(F)c(F)c3F)nn2)[C@@H](O)[C@@H](CO)O[C@@H]1Cc1cc(C2(C)COC2)no1` [Ex 1.252], for which the IC50 worked out at 280 nM on human Gal-1 (hGal-1) and 69 nM at human Gal-3 (hGal-3).

For the compound `CO[C@@H]1[C@@H](n2cc(-c3ccc(F)c(F)c3F)nn2)[C@@H](O)[C@@H](CO)O[C@@H]1Cc1cc(C(C)(C)CO)no1` [Ex 1.253], the IC50 on human Gal-1 (hGal-1) was 280 nM; at human Gal-3 (hGal-3) it was 58 nM.

Consider `CO[C@@H]1[C@@H](n2cc(-c3ccc(C)c(F)c3F)nn2)[C@@H](O)[C@@H](CO)O[C@@H]1Cc1cc(C(C)(C)C)no1` [Ex 1.254], for which the IC50 was 1110 nM on human Gal-1 (hGal-1) and 31 nM on human Gal-3 (hGal-3).

As to `CO[C@@H]1[C@@H](n2cc(-c3ccc(C)c(F)c3F)nn2)[C@@H](O)[C@@H](CO)O[C@@H]1Cc1cc(C2(C)CC2)no1` [Ex 1.255], the IC50 on human Gal-1 (hGal-1) came to 2060 nM; on human Gal-3 (hGal-3), 32 nM.

Take `CO[C@@H]1[C@@H](n2cc(-c3ccc(C)c(F)c3F)nn2)[C@@H](O)[C@@H](CO)O[C@@H]1Cc1cc(C2(C)COC2)no1` [Ex 1.256]: the IC50 at human Gal-1 (hGal-1) came out at 1560 nM; at human Gal-3 (hGal-3), 55 nM.

For `CO[C@@H]1[C@@H](n2cc(-c3ccc(C)c(F)c3F)nn2)[C@@H](O)[C@@H](CO)O[C@@H]1Cc1cc(C(C)(C)CO)no1` [Ex 1.257], the IC50 at human Gal-1 (hGal-1) came to 1780 nM; at human Gal-3 (hGal-3), 44 nM.

On to `CO[C@@H]1[C@@H](n2cc(-c3ccc(Cl)c(F)c3F)nn2)[C@@H](O)[C@@H](CO)O[C@@H]1Cc1cc(C(C)(C)C)no1` [Ex 1.258], for which the IC50 at human Gal-1 (hGal-1) turned out to be 980 nM; on human Gal-3 (hGal-3), 37 nM.

Consider `CO[C@@H]1[C@@H](n2cc(-c3ccc(Cl)c(F)c3F)nn2)[C@@H](O)[C@@H](CO)O[C@@H]1Cc1cc(C2(C)CC2)no1` [Ex 1.259], for which the values for the IC50 on human Gal-1 (hGal-1) and at human Gal-3 (hGal-3) were 620 nM and 33 nM, respectively.

As for `CO[C@@H]1[C@@H](n2cc(-c3ccc(Cl)c(F)c3F)nn2)[C@@H](O)[C@@H](CO)O[C@@H]1Cc1cc(C2(C)COC2)no1` [Ex 1.260], the IC50 on human Gal-1 (hGal-1) came out at 1410 nM; at human Gal-3 (hGal-3), 63 nM.

Regarding `CO[C@@H]1[C@@H](n2cc(-c3ccc(Cl)c(F)c3F)nn2)[C@@H](O)[C@@H](CO)O[C@@H]1Cc1cc(C(C)(C)CO)no1` [Ex 1.261], the results for the IC50 at human Gal-1 (hGal-1) and on human Gal-3 (hGal-3) were 1050 nM and 42 nM, respectively.

Turning to `CO[C@@H]1[C@@H](n2cc(-c3ccc(F)c(F)c3F)nn2)[C@@H](O)[C@@H](CO)O[C@@H]1Cc1cc(C(C)(CO)CCl)no1` (stereo partly shown) [Ex 1.262], the figures for the IC50 on human Gal-1 (hGal-1) and on human Gal-3 (hGal-3) were 330 nM and 70 nM, respectively.

With `CO[C@@H]1[C@@H](n2cc(-c3ccc(C)c(F)c3F)nn2)[C@@H](O)[C@@H](CO)O[C@@H]1Cc1cc(C(C)(CO)CCl)no1` (stereo partly shown) [Ex 1.263], the IC50 came to 1030 nM on human Gal-1 (hGal-1) and 58 nM at human Gal-3 (hGal-3).

For `CO[C@@H]1[C@@H](n2cc(-c3ccc(Cl)c(F)c3F)nn2)[C@@H](O)[C@@H](CO)O[C@@H]1Cc1cc(C(C)(CO)CCl)no1` (stereo partly shown) [Ex 1.264], the IC50 on human Gal-1 (hGal-1) worked out at 1610 nM; on human Gal-3 (hGal-3), 71 nM.

Regarding `CO[C@@H]1[C@@H](n2cc(-c3cc(F)c(F)c(F)c3)nn2)[C@@H](O)[C@@H](CO)O[C@@H]1CC1CC(C(C)(C)C)=NO1` (stereo partly shown) [Ex 1.265], the figures for the IC50 at human Gal-1 (hGal-1) and on human Gal-3 (hGal-3) were 2580 nM and 250 nM, respectively.

For the compound `CO[C@@H]1[C@@H](n2cc(-c3ccc(Cl)c(F)c3F)nn2)[C@@H](O)[C@@H](CO)O[C@@H]1CC1CC(C(C)(C)C)=NO1` (stereo partly shown) [Ex 1.266], the IC50 came out at 1560 nM at human Gal-1 (hGal-1) and 91 nM on human Gal-3 (hGal-3).

`CO[C@@H]1[C@@H](n2cc(-c3ccc(C#N)c(F)c3F)nn2)[C@@H](O)[C@@H](CO)O[C@@H]1Cc1cc(C(C)(C)C)on1` [Ex 1.267]: the IC50 at human Gal-1 (hGal-1) is 6100 nM; on human Gal-3 (hGal-3), 160 nM.

For `CO[C@@H]1[C@@H](n2cc(-c3cc(F)c(F)c(F)c3)nn2)[C@@H](O)[C@@H](CO)O[C@@H]1Cc1cc(C2(C)CCOCC2)on1` [Ex 1.268], the IC50 at human Gal-1 (hGal-1) amounted to 2490 nM; on human Gal-3 (hGal-3), 110 nM.

Regarding `CO[C@@H]1[C@@H](n2cc(-c3ccc(F)c(F)c3F)nn2)[C@@H](O)[C@@H](CO)O[C@@H]1Cc1cc(C2(C)CCOCC2)on1` [Ex 1.269], the IC50 on human Gal-1 (hGal-1) worked out at 900 nM; at human Gal-3 (hGal-3), 49 nM.

Take `CO[C@@H]1[C@@H](n2cc(-c3ccc(C)c(F)c3F)nn2)[C@@H](O)[C@@H](CO)O[C@@H]1Cc1cc(C2(C)CCOCC2)on1` [Ex 1.270]: the IC50 on human Gal-1 (hGal-1) amounted to 3550 nM; at human Gal-3 (hGal-3), 38 nM.

`CO[C@@H]1[C@@H](n2cc(-c3ccc(Cl)c(F)c3F)nn2)[C@@H](O)[C@@H](CO)O[C@@H]1Cc1cc(C2(C)CCOCC2)on1` [Ex 1.271]: the IC50 on human Gal-1 (hGal-1) was determined as 1660 nM; on human Gal-3 (hGal-3) it was 49 nM.

As to `CO[C@@H]1[C@@H](n2cc(-c3cc(F)c(F)c(F)c3)nn2)[C@@H](O)[C@@H](CO)O[C@@H]1Cc1cc(C2(C)CCCC2)on1` [Ex 1.272], the IC50 at human Gal-1 (hGal-1) was 3490 nM; at human Gal-3 (hGal-3), 250 nM.

Turning to `CO[C@@H]1[C@@H](n2cc(-c3ccc(F)c(F)c3F)nn2)[C@@H](O)[C@@H](CO)O[C@@H]1Cc1cc(C2(C)CCCC2)on1` [Ex 1.273], the IC50 at human Gal-1 (hGal-1) was found to be 720 nM; on human Gal-3 (hGal-3), 66 nM.
